Test results: US20220160680A1, “MICROORGANISM MIXTURES, MOLECULES DERIVED THEREFROM, AND METHODS OF USE THEREOF” (B. G. Negev Technologies and Applications Ltd., at …, priority 2018, published 2022)
Like-named read-outs stand apart in the source and are kept apart here.

Legend:
[1] = Oxygen radical absorbance capacity (ORAC) assay; assay type: biochemical; conditions: AAPH-induced
Text: FIGS. 34A-34B are graphs showing the anti-oxidation effect of tryptophol acetate and tyrosol acetate. Anti-oxidative capacity of the molecules as measured by DPPH (34A) and ORAC (34B) assays. 34A. The results are presented as a percentage of absorbance inhibition (517 nm, the absorbance maximum of DPPH) in the presence of tryptophol acetate (1) alone, tyrosol acetate alone (2) alone, and 1+2 together. 34B. Fluorescence decay of fluorescein induced by AAPH in the absence or presence of 1 and 2. Reaction mixtures containing fluorescein (60 nM) and AAPH (18.75 mM) in 200 μl of phosphate buffer (75 mM, pH 7.4) were incubated at 37° C. for 800 min. Changes in fluorescence intensity emitted by fluorescein were monitored. Results are presented as the net area under the curve (AUC). Each value is the mean±SD of triplicate experiments. ***p<0.0001
The ORAC experiment measures the quenching of fluorescein emission by peroxyl radicals, and inhibition of the oxidation reaction by molecular species added to the solution.

Vibrio cholerae MM920 = test: Quorum sensing bioluminescence reporter assay; assay type: cell-based; conditions: for IC50: Vibrio cholerae, read-out: IC50 of QS inhibition in V. cholera
Procedure: Bioluminescence assay was performed with mutant bacteria lacking the nucleotide sequences encoding the relevant autoinducers (AI). Additionally, the bacteria were cloned with bioluminescence reporter plasmids in order to measure their luminescence intensity when quorum sensing gene expression occurs. Ninety-six (96) well microtiter plate assays were used to assess AI activation (agonist) or inhibition (antagonist) of the following bacteria: Agrobacterium tumefaciens, which responds to the C8 autoinducer, and both Vibrio cholerae and Vibrio harveyi, which respond to the (S)-4,5-dihydroxy-2,3-pentanedione (DPD) autoinducer to communicate.
Agrobacterium tumefaciens A136 pCF218 pMV26 culture was grown in Luria-Bertani broth (LB; Miller's broth) supplemented with 25 μg/ml of kanamycin and 4.5 μg/ml of tetracycline at 28-30° C. for 24 h. Both Vibrio harveyi and Vibrio cholerae strains were grown in LB Broth (Lennox) supplemented with tetracycline at 30° C. for 24 h. The overnight cultures were diluted to an absorbance density (OD600) of 0.05 by fresh LB medium. The probiotic yogurt (e.g., kefir)-extracted molecules were tested at gradient concentration in two types of experiments: competition assay in the absence (activation/agonist) or presence (inhibition/antagonist) of 400 pM 3-oxo-C8-HSL (A. tumefaciens A136 pCF218 pMV26) CAI1 (Vibrio Cholerae MM920) 200 nM DPD (Vibrio harveyi MM30) and the OD600 of 0.05 by fresh LB medium. A clear bottom 96-well microliter plate was prepared with wells containing test compounds serially diluted into the LB medium (triplicates). A total of 100 μl of the diluted cells were added to each well. The control sample contained the bacteria and specific AI molecules without the yogurt extracted molecules. Luminescence was measured every 20 min for 19 h with continuous shaking at 30° C., using a Microtiter Plate Reader (Varioskan Flash, Thermo). Average luminescence values divided by OD600 values were plotted against the added compound concentration.
The effect of the Kefir biomass crude extract molecules on the following bacteria, A. tumefaciens A136, V. cholerae MM920 and V. harveyi MM30 were measured as described by Brenier et al. (2008). The overnight culture was diluted to an absorbance density (OD600) of 0.05 by fresh LB medium. A clear bottom 96-well microliter plate was prepared with wells containing test compounds serially diluted into the LB medium (triplicates). A total of 100 μL of the diluted cells was added to each well. The control sample contained the bacteria and specific autoinducer molecules without the kefir crude extracted molecules. Luminescence was measured every 20 min for 19 h with continuous shaking at 30° C., using a Microtiter Plate Reader (Varioskan Flash, Thermo). Two types of experiments were performed: a competition assay in the presence of 400 pM 3-oxo-C8-HSL (A. tumefaciens A136), CAI-1 (V. Cholerae MM920) 200 nM DPD (V. harveyi MM30) and the other in the absence of these AI's to measure agonistic activity of the crude extracted molecules. Average luminescence values divided by OD600 values were plotted against the added compound concentration.

V. cholerae VC1 WT = test: RT-qPCR of QS genes; assay type: cell-based, Vibrio cholerae; conditions: 100 μM
Procedure: RNA was extracted from wild-type strain VC1 cultured in LB lennox medium supplemented with or without 100 μM Tryptophol acetate or Tyrosol acetate grown to an A600 of approximately 1.0OD using the RNA Protect Bacteria reagent and the RNeasy® Mini Kit (Qiagen, Valencia, Calif.) as per the manufacturer's instructions, including the on-column DNase I digestion described by the manufacturer. Purified RNA was quantified using a Banalyzer (Eppendorf, Hamburg, Germany). cDNA was synthesized from 1 μg of RNA using PrimeScript™ RT reagent kit (Takara, Ohtsu, Japan). The reaction was incubated at 37° C. for 30 min, and 2 μl of cDNA was subjected to RT-PCR analysis on an AB Step One Plus PCR system (Applied Biosystems, Carlsbad, Calif.), using qPCRBIO SyGreen Blue mix Hi-ROX (PCR Biosystems, London, UK). RT-PCR was performed in a 96-well plate (Bio-Rad) in triplicate in a 20 μl volume. The mdh gene was used as an endogenous loading control for the reactions. The amount of transcript was analyzed with StepOnePlus Software V2.3 (Applied Biosystems Carlsbad, Calif.). Mdh forward primer 5′-[…]-3′ (SEQ ID NO: 1); Mdh reverse primer 5′-[…]-3′ (SEQ ID NO: 2); vpsT forward primer 5′-[…]-3′ (SEQ ID NO: 3); vpsT reverse primer 5′-[…]-3′ (SEQ ID NO: 4); ctxA forward primer 5′-[…]-3′ (SEQ ID NO: 5); ctxA reverse primer 5′-[…]-3′ (SEQ ID NO: 6); aphA forward primer 5′-[…]-3′ (SEQ ID NO: 7); aphA reverse primer 5′-[…]-3′ (SEQ ID NO: 8). For Transcriptome libraries construction, we used the purified RNA as described in section Quantitative Real-time PCR (RT-PCR) Analysis. The ribosomal RNA was depleted using MICROBExpress kit (Invitrogen by Thermo Fisher Scientific, Lithuania). The libraries preparation was performed using SMARTer Standard RNA-Seq kit (Takara Bio, USA) according to manufacture instruction. High Throughput Sequencing Analysis was done by Illumina HiSeq 2500, SR 50 bp and barcode Raw data quality values phred+33. the amount and percentage of reads that passed the sequencer's automated quality filter, control mapping value, error rate, and per-base quality scores indicate that the sequencing was of high quality. Only a small percentage of reads were discarded due to trimming and the peak of the length distribution is at the original length of 51. The Software and applications that were used for comparison analyses are Library quality control: FASTQC version 0.11.5; Trim_galore (uses cutadapt version 1.10); Mapping: Tophat2 version 2.1.0 (uses Bowtie2 version 2.2.6); Gene counting: HTseq-count version 0.6.1. For normalization and differential expression analysis, DESeq2 R package version 1.18.1 Input files. The reference genome used in the analysis was of Vibrio cholerae O1 biovar El Tor str. N16961, from the following link: ftp://ftp.ncbi.nlm.nih.gov/genomes/all/GCF/000/006/745/GCF_000006745.1_ASM674v1. Counting was performed using an annotation file downloaded at the following link: ftp://ftp.ncbi.nlm.nih.gov/genomes/all/GCF/000/006/745/GCF_000006745.1_ASM674v1/G CF_000006745.1_ASM674v1_genomic.gtf.gz. All these files can be found in our FTP server, see section 4-Analysis result files.

Row | SMILES | Fluorescence decay of fluorescein [1] | IC50 (Vibrio cholerae MM920) | Effect on QS in V. cholera, high volume (Vibrio cholerae MM920; high volume) | Effect on QS in V. cholera, high volume (Vibrio cholerae MM920; high volume, listed as 180 molecule) | Effect on QS in V. cholera, low volume (Vibrio cholerae MM920) | Effect on QS in V. cholera, low volume (Vibrio cholerae MM920; listed as 180 molecule) | QS-related genes' expression (V. cholerae VC1 WT) | IC50 (Vibrio cholerae MM920; high volume) | aphA expression (V. cholerae VC1 WT; high cell density) | ctxA expression (V. cholerae VC1 WT; high cell density) | hapA expression (V. cholerae VC1 WT; high cell density) | hapR expression (V. cholerae VC1 WT; high cell density) | vpsT expression (V. cholerae VC1 WT; high cell density)
1 | CC(=O)OCCc1ccc(O)cc1 [Tyrosol acetate] | ~800 min | 24.4 ± 2.4 µM | totally inhibits QS | totally inhibited QS | activates QS | activated QS | affect QS-related genes' expression | – | – | – | – | – | –
2 | CC(=O)OCCc1c[nH]c2ccccc12 [Tryptophol acetate] | around 400 min | – | inhibits QS | – | activates QS | – | – | 12.7 ± 2 µM | upregulation | significantly repressed | lower expression | significant downregulation | remarkable upregulation
